Results taken from patent US10131652B2, “Pyrimidinyloxy benzene derivatives as herbicides” (E. I. DU PONT DE NEMOURS AND COMPANY, priority 2014, dated 2018).
Like-named read-outs stand apart in the source and are kept apart here.

Experiments:
Test in all cases: Test D pre-/postemergence plant response
Format in all cases: in vivo
[1] = tested on: oilseed rape (Brassica napus); conditions: Brassica napus; for plant injury at 31 g/ha: 31 g ai/ha; for plant injury at 62 g/ha: 62 g ai/ha
Summary of the method: (§1)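 Visual injury scoring (0–100) at 13 to 15 days in greenhouse. Preemergence sprays on seeded loam/sand; postemergence sprays on 1–4 leaf plants.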

[2] = tested on: blackgrass (Alopecurus myosuroides); conditions: Alopecurus myosuroides; for pest or weed control at 16 g/ha: 16 g ai/ha; for pest or weed control at 31 g/ha: 31 g ai/ha; for pest or weed control at 62 g/ha: 62 g ai/ha; for pest or weed control at 125 g/ha: 125 g ai/ha
Summary of the method: as §1

[3] = tested on: lambsquarters (Chenopodium album); conditions: Chenopodium album; for pest or weed control at 31 g/ha: 31 g ai/ha; for pest or weed control at 62 g/ha: 62 g ai/ha; for pest or weed control at 125 g/ha: 125 g ai/ha
Summary of the method: as §1

[4] = tested on: yellow nutsedge (Cyperus esculentus); conditions: Cyperus; for pest or weed control at 31 g/ha: 31 g ai/ha; for pest or weed control at 62 g/ha: 62 g ai/ha; for pest or weed control at 125 g/ha: 125 g ai/ha
Summary of the method: as §1

[5] = tested on: waterhemp (common waterhemp, Amaranthus rudis); conditions: Amaranthus tuberculatus; for pest or weed control at 31 g/ha: 31 g ai/ha; for pest or weed control at 62 g/ha: 62 g ai/ha; for pest or weed control at 125 g/ha: 125 g ai/ha
Summary of the method: as §1

[6] = tested on: johnsongrass (Sorghum halepense); conditions: Sorghum halepense; for pest or weed control at 31 g/ha: 31 g ai/ha; for pest or weed control at 62 g/ha: 62 g ai/ha; for pest or weed control at 125 g/ha: 125 g ai/ha
Summary of the method: as §1

[7] = tested on: galium (catchweed bedstraw, Galium aparine); conditions: Galium; for pest or weed control at 31 g/ha: 31 g ai/ha; for pest or weed control at 62 g/ha: 62 g ai/ha; for pest or weed control at 125 g/ha: 125 g ai/ha
Summary of the method: as §1

[8] = tested on: giant foxtail (Setaria faberii); conditions: Setaria faberi; for pest or weed control at 16 g/ha: 16 g ai/ha; for pest or weed control at 31 g/ha: 31 g ai/ha; for pest or weed control at 62 g/ha: 62 g ai/ha; for pest or weed control at 125 g/ha: 125 g ai/ha
Summary of the method: as §1

[9] = tested on: morningglory (Ipomoea coccinea); conditions: Ipomoea; for pest or weed control at 31 g/ha: 31 g ai/ha; for pest or weed control at 62 g/ha: 62 g ai/ha
Summary of the method: as §1

[10] = tested on: Italian ryegrass (Lolium multiflorum); conditions: Lolium multiflorum, post-emergence; Postemergence, 31 g ai/ha; scale 0 to 100 (0 no effect, 100 complete control); read-out: Ryegrass, Italian plant response rating
Summary of the method: as §1

[11] = pre-emergence, Preemergence, scale 0 to 100 (0 no effect, 100 complete control), read-out: Plant response rating, Oilseed Rape
[12] = post-emergence, Postemergence, scale 0 to 100 (0 no effect, 100 complete control), read-out: Blackgrass plant response rating
[13] = post-emergence, Postemergence, scale 0 to 100, 0 no effect, 100 complete control, read-out: Plant response rating, Blackgrass
[14] = pre-emergence, Preemergence, scale 0 to 100 (0 no effect, 100 complete control), read-out: Plant response rating, Blackgrass
[15] = post-emergence, Postemergence, scale 0 to 100, 0 no effect, 100 complete control, read-out: Plant response rating, Lambsquarters
[16] = pre-emergence, Preemergence, scale 0 to 100 (0 no effect, 100 complete control), read-out: Plant response rating, Lambsquarters
[17] = post-emergence, Postemergence, scale 0 to 100, 0 no effect, 100 complete control, read-out: Plant response rating, Nutsedge, Yellow
[18] = pre-emergence, Preemergence, scale 0 to 100 (0 no effect, 100 complete control), read-out: Plant response rating, Nutsedge, Yellow
[19] = post-emergence, Postemergence, scale 0 to 100, 0 no effect, 100 complete control, read-out: Plant response rating, Waterhemp
[20] = pre-emergence, Preemergence, scale 0 to 100 (0 no effect, 100 complete control), read-out: Plant response rating, Waterhemp
[21] = post-emergence, Postemergence, scale 0 to 100, 0 no effect, 100 complete control, read-out: Plant response rating, Johnsongrass
[22] = pre-emergence, Preemergence, scale 0 to 100 (0 no effect, 100 complete control), read-out: Plant response rating, Johnsongrass
[23] = post-emergence, Postemergence, scale 0 to 100, 0 no effect, 100 complete control, read-out: Plant response rating, Galium
[24] = pre-emergence, Preemergence, scale 0 to 100 (0 no effect, 100 complete control), read-out: Plant response rating, Galium
[25] = post-emergence, Postemergence, scale 0 to 100 (0 no effect, 100 complete control), read-out: Foxtail, Giant plant response rating
[26] = post-emergence, Postemergence, scale 0 to 100, 0 no effect, 100 complete control, read-out: Plant response rating, Foxtail, Giant
[27] = pre-emergence, Preemergence, scale 0 to 100 (0 no effect, 100 complete control), read-out: Plant response rating, Foxtail, Giant
[28] = pre-emergence, Preemergence, scale 0 to 100 (0 no effect, 100 complete control), read-out: Plant response rating, Morningglory

**Q.** What does the source list for Fc1cccc(Oc2ncc(Cl)cn2)c1-c1cc(C(F)F)no1 [Compound 144, 5-chloro-2-[2-[3-(difluoromethyl)-5-isoxazolyl]-3-fluorophenoxy]pyrimidine]?
**A.** plant injury at 31 g/ha ([1]; post-emergence, Postemergence, scale 0 to 100 (0 no effect, 100 complete control), read-out: Oilseed Rape plant response rating): 80%; plant injury at 62 g/ha ([1]; post-emergence, Postemergence, scale 0 to 100, 0 no effect, 100 complete control, read-out: Plant response rating, Oilseed Rape): 95%; plant injury at 125 g/ha ([1]; pre-emergence, Preemergence, 125 g ai/ha, read-out: Plant response rating (scale 0 to 100), Oilseed Rape): 100%; plant injury at 16 g/ha ([1]; pre-emergence, Preemergence, 16 g ai/ha, scale 0 to 100 (0 no effect, 100 complete control), read-out: Plant response rating, Oilseed Rape): 98%; plant injury at 31 g/ha [1, 11]: 100%; plant injury at 62 g/ha [1, 11]: 100%; pest or weed control at 16 g/ha [2, 12]: 5%; pest or weed control at 31 g/ha [2, 12]: 15%; pest or weed control at 62 g/ha [2, 13]: 15%; pest or weed control at 125 g/ha [2, 13]: 75%; pest or weed control at 125 g/ha ([2]; pre-emergence, Preemergence, read-out: Plant response rating (scale 0 to 100), Blackgrass): 95%; pest or weed control at 16 g/ha [2, 14]: 55%; pest or weed control at 31 g/ha [2, 14]: 95%; pest or weed control at 62 g/ha [2, 14]: 95%; pest or weed control at 31 g/ha ([3]; post-emergence, Postemergence, scale 0 to 100 (0 no effect, 100 complete control), read-out: Lambsquarters plant response rating): 80%; pest or weed control at 62 g/ha [3, 15]: 90%; pest or weed control at 125 g/ha [3, 15]: 95%; pest or weed control at 125 g/ha ([3]; pre-emergence, Preemergence, read-out: Plant response rating (scale 0 to 100), Lambsquarters): 100%; pest or weed control at 16 g/ha ([3]; pre-emergence, Preemergence, 16 g ai/ha, scale 0 to 100 (0 no effect, 100 complete control), read-out: Plant response rating, Lambsquarters): 100%; pest or weed control at 31 g/ha [3, 16]: 100%; pest or weed control at 62 g/ha [3, 16]: 100%; pest or weed control at 31 g/ha ([4]; post-emergence, Postemergence, scale 0 to 100 (0 no effect, 100 complete control), read-out: Nutsedge, Yellow plant response rating): 5%; pest or weed control at 62 g/ha [4, 17]: 5%; pest or weed control at 125 g/ha [4, 17]: 5%; pest or weed control at 125 g/ha ([4]; pre-emergence, Preemergence, read-out: Plant response rating (scale 0 to 100), Nutsedge, Yellow): 85%; pest or weed control at 16 g/ha ([4]; pre-emergence, Preemergence, 16 g ai/ha, scale 0 to 100 (0 no effect, 100 complete control), read-out: Plant response rating, Nutsedge, Yellow): 15%; pest or weed control at 31 g/ha [4, 18]: 30%; pest or weed control at 62 g/ha [4, 18]: 50%; pest or weed control at 31 g/ha ([5]; post-emergence, Postemergence, scale 0 to 100 (0 no effect, 100 complete control), read-out: Waterhemp plant response rating): 85%; pest or weed control at 62 g/ha [5, 19]: 100%; pest or weed control at 125 g/ha [5, 19]: 100%; pest or weed control at 125 g/ha ([5]; pre-emergence, Preemergence, read-out: Plant response rating (scale 0 to 100), Waterhemp): 100%; pest or weed control at 16 g/ha ([5]; pre-emergence, Preemergence, 16 g ai/ha, scale 0 to 100 (0 no effect, 100 complete control), read-out: Plant response rating, Waterhemp): 100%; pest or weed control at 31 g/ha [5, 20]: 100%; pest or weed control at 62 g/ha [5, 20]: 100%; pest or weed control at 31 g/ha ([6]; post-emergence, Postemergence, scale 0 to 100 (0 no effect, 100 complete control), read-out: Johnsongrass plant response rating): 10%; pest or weed control at 62 g/ha [6, 21]: 10%; pest or weed control at 125 g/ha [6, 21]: 50%; pest or weed control at 125 g/ha ([6]; pre-emergence, Preemergence, read-out: Plant response rating (scale 0 to 100), Johnsongrass): 100%; pest or weed control at 16 g/ha ([6]; pre-emergence, Preemergence, 16 g ai/ha, scale 0 to 100 (0 no effect, 100 complete control), read-out: Plant response rating, Johnsongrass): 20%; pest or weed control at 31 g/ha [6, 22]: 75%; pest or weed control at 62 g/ha [6, 22]: 100%; pest or weed control at 31 g/ha ([7]; post-emergence, Postemergence, scale 0 to 100 (0 no effect, 100 complete control), read-out: Galium plant response rating): 85%; pest or weed control at 62 g/ha [7, 23]: 90%; pest or weed control at 125 g/ha [7, 23]: 95%; pest or weed control at 125 g/ha ([7]; pre-emergence, Preemergence, read-out: Plant response rating (scale 0 to 100), Galium): 98%; pest or weed control at 16 g/ha ([7]; pre-emergence, Preemergence, 16 g ai/ha, scale 0 to 100 (0 no effect, 100 complete control), read-out: Plant response rating, Galium): 95%; pest or weed control at 31 g/ha [7, 24]: 98%; pest or weed control at 62 g/ha [7, 24]: 98%; pest or weed control at 16 g/ha [8, 25]: 5%; pest or weed control at 31 g/ha [8, 25]: 10%; pest or weed control at 62 g/ha [8, 26]: 25%; pest or weed control at 125 g/ha [8, 26]: 25%; pest or weed control at 125 g/ha ([8]; pre-emergence, Preemergence, read-out: Plant response rating (scale 0 to 100), Foxtail, Giant): 100%; pest or weed control at 16 g/ha [8, 27]: 100%; pest or weed control at 31 g/ha [8, 27]: 100%; pest or weed control at 62 g/ha [8, 27]: 100%; pest or weed control at 31 g/ha ([9]; post-emergence, Postemergence, scale 0 to 100 (0 no effect, 100 complete control), read-out: Morningglory plant response rating): 85%; pest or weed control at 62 g/ha ([9]; post-emergence, Postemergence, scale 0 to 100, 0 no effect, 100 complete control, read-out: Plant response rating, Morningglory): 85%; pest or weed control at 125 g/ha ([9]; pre-emergence, Preemergence, 125 g ai/ha, read-out: Plant response rating (scale 0 to 100), Morningglory): 100%; pest or weed control at 16 g/ha ([9]; pre-emergence, Preemergence, 16 g ai/ha, scale 0 to 100 (0 no effect, 100 complete control), read-out: Plant response rating, Morningglory): 20%; pest or weed control at 31 g/ha [9, 28]: 75%; pest or weed control at 62 g/ha [9, 28]: 100%; pest or weed control at 31 g/ha [10]: 5%
